Data as given in BindingDB's records for doi:10.1021/jm048993p (Merck Research Laboratories, 2005).

Target: Peroxisome proliferator-activated receptor alpha (Mesocricetus auratus)
Assay: Agonist activity against hamster Peroxisome proliferator activated receptor alpha

## CCCc1cc2c(C(F)(F)F)noc2c(CCC)c1OC(C)(C)C(=O)O [2-(5,7-Dipropyl-3-trifluoromethyl-benzo[d]isoxazol-6-yloxy)-2-methyl-propionic acid]
  EC50: 460 nM
